Test results as given in patent US5760001A, “Cytokine restraining agents and methods of use in pathologies and conditions associated with altered cytokine levels” (Trega Biosciences, Inc., priority 1995, dated 1998).

Key:
[1] = system: inducible nitric oxide synthase (INOS); test: Inducible nitric oxide synthase induction in rat aorta smooth muscle cells (cGMP RIA); format: cell-based; conditions: RASMC induced with LPS, IL-1β or TNF-α; EX-2 0.1 or 1 μM
Experimental: Rat aorta smooth muscle cells (RASMC) were isolated from male rats (325-350 g) using the previously published procedures of Gelsterfer et al., Circ. Res. 62:749-756 (1988), which is incorporated herein by reference. Cells were positively identified as smooth muscle cells by indirect immunofluorescent staining for anti-α-actin, using a mouse anti-α-actin antibody and anti-mouse IgG FITC conjugate. Cells were grown in T-75 tissue culture flasks (Corning Delbelco's Glass, Inc.; Corning, N.Y.) in 50% F12 and 50% Delbelco's Modified Eagle Medium (DMEM) supplemented with 10% bovine serum, 0.2 g/l L-glutamine, penicillin (100 U/ml) and streptomycin (0.1 mg/ml).
Cells between passages 1-5 were pretreated with one of the following: vehicle, LPS (1 μg/ml), IL-1β (10 U/ml), or TNF-α (100 U/ml) for 6 hr. […] Accumulation of cGMP was determined following exposure to 0.3 mM 3-isobutyl-1-methyl xanthine (IBMX) in the presence or absence of 1 mM L-arginine. […] The HCl extract was analyzed for cGMP by RIA and the NaOH-solubilized cell remnants were used for protein determination.
Male Sprague-Dawley rats were anesthetized with 55 mg/kg pentobarbital IP. […] RASMC were incubated with plasma from control or EX-2-treated animals and the ability of plasma components to inhibit the induction of INOS by LPS or IL-1β was determined as above. […]

[2] = system: Male Harlan Sprague-Dawley rats; test: Adult respiratory distress syndrome: LPS-induced PMN count in broncho-alveolar lavage fluid; format: in vivo; conditions: 100 μg/kg IP at 0, 2 and 4 hr; intratracheal LPS 5 mg/kg; lavage at 6 hr
Experimental: These experiments were performed using a modification of the methods described by Ulich et al., Am. J. Pathol. 141:61-68 (1992) and by Wheelden et al., Lab. Animals 26:29-37 (1992), each of which is incorporated herein by reference. Male Harlan Sprague-Dawley rats were anesthetized using a mixture of 70 mg/kg ketamine and 6 mg/kg rompun injected IP. A 2-3 cm incision was made in the neck of each anesthetized rat and its trachea was exposed by blunt dissection of the surrounding soft tissue. The rats were suspended on a near vertical slab and intratracheal injections were performed by inserting into the exposed trachea, at a point 1 cm posterior to the larynx, a 25G×1/2 inch needle attached to a 1 cc syringe.
Each rat received 0.5 ml/kg of saline or 0.5 ml/kg of 10 mg/ml (5 mg/kg) LPS endotoxin via slow intratracheal administration. Immediately following administration of the LPS endotoxin, rats were injected IP with 1 ml/kg of either saline (control) or saline containing various concentrations of EX-2 (treated). The rats were maintained in the elevated position for 1-2 min to facilitate distribution of the LPS and saline into the lung. The incisions were closed and the rats were allowed to recover. […]
The total polymorphonuclear leukocytes (PMN; neutrophils) in the broncho-alveolar lavage fluid were counted in the EX-2-treated rats and compared with the number in the control rats.

Sprague-Dawley rats = test: Renal ischemia-reperfusion injury; format: in vivo; design: RVR (renal vascular resistance): unit not given here; conditions: I/R + EX-2 (50 or 500 μg/kg iv before 1 hr clamping), after 60 min reperfusion
Experimental: Sprague-Dawley rats (250-300 g) were anesthetized with Inactin® (120 mg/kg). After deep anesthesia was assured, the rats were cannulated in the trachea with polyethylene (PE) tubing (PE 240), jugular vein, femoral artery, bladder (PE 50 for previous 3 cannulations), and left ureter (stretched PE 50). Once cannulation was completed, a 2 cm flank incision above the left kidney was performed and the renal pelvis and vascular bundle were exposed. The tissue surrounding the left renal artery was gently dissected away from the artery. The exposed renal artery was clamped for 1 hr using a small vascular cross-over clamp.
Just prior to clamping, EX-2 (50 or 500 μg/kg), ketorolac (KETO, 1 mg/kg), or vehicle was administered intravenously (iv) After 1 hr of clamping (ischemia), the clamp was gently removed with care taken to avoid damaging either the renal artery or nerves. An infusion of ^3 H-Inulin (NEN/Dupont; Wilmington, Del.), (0.6 μCi/ml in phosphate buffered saline (PBS)) (2 ml/hr) was initiated at a constant rate of […]. After 60 min of reperfusion, glomerular filtration rate (GFR), renal plasma flow (RPF) and renal vascular resistance (RVR) were assessed in two 30 min collection periods. The kidney was then removed for analysis. Sham operated and clamped rats served as controls for the above group. Contralateral renal function was utilized to determine the stability of the rat's renal function during the measured period.

“Ac-Nle-Gln-His-(D)Phe-Arg-(D)Trp-Gly-NH2 [EX-2]” was tested, and the “INOS: cGMP (pmol/100 mg/15 min), % Reduction of induced increase” value [1] was 60%, the “Reduction in LPS-induced PMN Count” value [2] was 58% and the “GFR (glomerular filtration rate)” value (Sprague-Dawley rats; I/R + PBS 0.2 ± 0.1, Sham 1.0 ± 0.1) was 0.5 ± 0.1. For the same substance, the “RPF (renal plasma flow)” value (Sprague-Dawley rats; I/R + PBS 0.8 ± 0.2, Sham 4.2 ± 0.4) was 2.3 ± 0.3 and the “RVR (renal vascular resistance)” value (Sprague-Dawley rats; I/R + PBS 6.6 ± 2.1, Sham 1.0 ± 0.1) was 1.8 ± 0.2.
